According to patent US7268241B2, “Method for the production of 4-(17$g(a)-methyl substituted 3-oxoestra-4 9-dien-11$g(b)-yl)benzaldehyd-(1e or 1z)-oximes” (Schering AG, priority 2000, dated 2007):

Legend:
Progesterone Receptor = biological target: T1, Progesterone Receptor (Oryctolagus cuniculus, UniProt P06186); test: Receptor binding affinity, competitive binding of 3H-ORG 2058 tracer in uterus cytosol; settings: relative binding affinity; uterus cytosol of the estradiol-primed rabbit; tracer 3H-ORG 2058; reference Progesterone = 100%
T1 construct: receptors in the cytosol from animal target organs; from tissue; host or cells: uterus cytosol of estradiol-primed rabbit
T1 sequence (P06186 1-930): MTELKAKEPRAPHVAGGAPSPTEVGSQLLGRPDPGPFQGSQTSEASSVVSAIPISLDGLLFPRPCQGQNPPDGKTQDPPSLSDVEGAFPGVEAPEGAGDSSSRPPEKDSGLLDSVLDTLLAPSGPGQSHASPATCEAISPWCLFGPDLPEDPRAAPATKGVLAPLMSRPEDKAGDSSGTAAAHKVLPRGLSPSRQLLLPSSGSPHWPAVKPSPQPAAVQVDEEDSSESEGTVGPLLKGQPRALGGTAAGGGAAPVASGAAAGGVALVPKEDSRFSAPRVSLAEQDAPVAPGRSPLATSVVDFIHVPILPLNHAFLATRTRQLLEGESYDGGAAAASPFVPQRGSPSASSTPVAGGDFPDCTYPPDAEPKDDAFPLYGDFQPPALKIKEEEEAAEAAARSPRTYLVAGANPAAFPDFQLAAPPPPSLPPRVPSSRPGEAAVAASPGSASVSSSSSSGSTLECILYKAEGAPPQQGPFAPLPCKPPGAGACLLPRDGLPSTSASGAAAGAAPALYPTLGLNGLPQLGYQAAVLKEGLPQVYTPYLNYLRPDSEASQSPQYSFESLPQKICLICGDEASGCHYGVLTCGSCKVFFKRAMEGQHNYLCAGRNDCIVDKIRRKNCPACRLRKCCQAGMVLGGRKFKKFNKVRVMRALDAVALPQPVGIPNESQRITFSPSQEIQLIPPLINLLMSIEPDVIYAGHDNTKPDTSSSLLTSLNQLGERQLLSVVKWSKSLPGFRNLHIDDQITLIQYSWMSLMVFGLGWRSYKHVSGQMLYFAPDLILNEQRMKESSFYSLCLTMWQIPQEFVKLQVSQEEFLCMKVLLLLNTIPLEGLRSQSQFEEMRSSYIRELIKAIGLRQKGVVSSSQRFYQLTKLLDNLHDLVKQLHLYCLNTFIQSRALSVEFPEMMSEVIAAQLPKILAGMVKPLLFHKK
Experimental: (§1) The receptor binding affinity was determined by competitive binding of a specifically binding ^3H-labeled tracer and the compound to be tested to receptors in the cytosol from animal target organs. In this case, receptor saturation and reaction equilibrium in the case of the following reaction conditions were sought:
(§2) Uterus cytosol of the estradiol-primed rabbit, stored at −30° C., in TED buffer (20 mmol of Tris/HCl, pH 7.4; 1 mmol of ethylenediamine tetraacetate, 2 mmol of dithiothreitol) with 250 mmol of saccharose. • Tracer: ^3H—ORG 2058 • Reference substance: Progesterone Glucocorticoid Receptor: • Thymus cytosol of the adrenalectomized rat, thymi stored at −30° C.; TED buffer • Tracer: ^3H-Dexamethasone, 20 nmol • Reference substance: Dexamethasone

Glucocorticoid Receptor = biological target: T2, Glucocorticoid Receptor (Rattus norvegicus, UniProt P06536); test: Receptor binding affinity, competitive binding of 3H-Dexamethasone tracer in thymus cytosol; settings: relative binding affinity; thymus cytosol of the adrenalectomized rat; tracer 3H-Dexamethasone; reference Dexamethasone = 100%
T2 construct: receptors in the cytosol from animal target organs; from tissue; host or cells: thymus cytosol of adrenalectomized rat
T2 sequence (P06536 1-795): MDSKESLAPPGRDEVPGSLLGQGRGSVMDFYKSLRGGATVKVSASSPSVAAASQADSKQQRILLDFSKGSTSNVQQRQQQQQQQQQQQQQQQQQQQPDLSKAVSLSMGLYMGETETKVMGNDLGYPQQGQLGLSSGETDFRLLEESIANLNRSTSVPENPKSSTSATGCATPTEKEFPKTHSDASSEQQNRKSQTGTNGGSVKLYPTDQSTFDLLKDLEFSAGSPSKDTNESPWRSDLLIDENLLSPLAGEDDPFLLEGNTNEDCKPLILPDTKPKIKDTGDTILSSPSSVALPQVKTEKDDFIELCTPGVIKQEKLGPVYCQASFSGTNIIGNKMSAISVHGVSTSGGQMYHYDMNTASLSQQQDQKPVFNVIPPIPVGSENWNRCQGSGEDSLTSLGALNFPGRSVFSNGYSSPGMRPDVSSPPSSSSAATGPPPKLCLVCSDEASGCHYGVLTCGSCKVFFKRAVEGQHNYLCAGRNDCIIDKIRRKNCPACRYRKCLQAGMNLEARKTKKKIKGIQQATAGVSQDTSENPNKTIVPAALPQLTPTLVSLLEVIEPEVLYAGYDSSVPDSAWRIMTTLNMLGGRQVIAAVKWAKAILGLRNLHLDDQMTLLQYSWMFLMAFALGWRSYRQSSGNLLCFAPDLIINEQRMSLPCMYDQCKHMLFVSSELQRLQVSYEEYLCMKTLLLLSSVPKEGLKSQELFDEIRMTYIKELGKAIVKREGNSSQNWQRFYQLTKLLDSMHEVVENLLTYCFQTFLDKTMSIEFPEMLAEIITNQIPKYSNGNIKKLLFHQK
Experimental: as §1, §2

pregnancy in the rat = test: Early-abortive action in the rat; type: in vivo; settings: subcutaneous, 5th to 7th day of pregnancy; dose giving complete inhibition of pregnancy
Experimental: The early-abortive action was determined in the rat after subcutaneous administration from the 5th to the 7th day of pregnancy [administration 0.2 ml/animal/day in benzyl benzoate/castor oil (1+4 v/v)]. The dose indicates what amount must be given to at least 4 animals apiece in comparison to untreated animals, so that a complete inhibition of pregnancy is achieved.

Structure (SMILES)	Progesterone Receptor [Progesterone = 100%] (Progesterone Receptor) [%]	Glucocorticoid Receptor [Dexamethasone = 100%] (Glucocorticoid Receptor) [%]	100% Early-abortive Action in the Rat (pregnancy in the rat) [mg/animal/day]
CC12CC(c3ccc(C=NO)cc3)C3=C4CCC(=O)C=C4CCC3C1CCC2(O)COCC(F)(F)F (stereo not drawn) [4-[17β-Hydroxy-(17α-(1,1,1-trifluoroethoxymethyl)-3-oxoestra-4,9-dien-11β-yl]benzaldehyde-1E-oxime]	177	94	3.0
COCC1(O)CCC2C3CCC4=CC(=O)CCC4=C3C(c3ccc(C=NO)cc3)CC21C (stereo not drawn) [4-[17β-Hydroxy-(17α-(methoxymethyl)-3-oxoestra-4,9-dien-11β-] [4-[17β-Hydroxy-17α-(methoxymethyl)-3-oxoestra-4,9-dien-11β-yl]benzaldehyde-1E-oxime]		76	1.0
COCC1(O)CCC2C3CCC4=CC(=O)CCC4=C3C(c3ccc(C=NO)cc3)CC21C (stereo not drawn) [4-[17β-Hydroxy-(17α-(methoxymethyl)-3-oxoestra-4,9-dien-11β-] [4-[17β-hydroxy-17α-(methoxymethyl)-3-oxoestra-4,9-dien-11β-yl]benzaldehyde-1Z-oxime]		67	
COC[C@]1(OC)CC[C@H]2[C@@H]3CCC4=CC(=O)CCC4=C3[C@@H](c3ccc(/C=N/O)cc3)C[C@@]21C [4-[17β-Methoxy-17α-(methoxymethyl)-3-oxoestra-4,9-dien-11β-yl] benzaldehyde-1E-oxime]	302	78	1.0
COCC1(OC)CCC2C3CCC4=CC(=O)CCC4=C3C(c3ccc(C=NO)cc3)CC21C (stereo not drawn) [4-[17β-methoxy-17α-(methoxymethyl)-3-oxoestra-4,9-dien-11β-yl]benzaldehyde-1Z-oxime]	126	52	1.0
CC#C[C@]1(O)CC[C@H]2[C@@H]3CCC4=CC(=O)CCC4=C3[C@@H](c3ccc(N(C)C)cc3)C[C@@]21C [Ru 38 486, reference compound]	685		3.0
